Where two headings read alike, the source gives them in different places.
What was measured:
[1] = mouse, plasma, 1 h, 10 µM
[2] = female, SCID, mouse, in vivo
[3] = Retention of docetaxel SDC-TRAPs in plasma and tumor (Example 53); format: in vivo, Female SCID Mouse (H1975); details: dosed SDC-TRAP-0423 7 mg/10 mL/kg IV, DRD, Table 5, second optimized procedure
Procedure: Blood samples (˜300 μL) were collected by cardiac puncture and immediately centrifuged at 6000 rpm for 8 minutes at approximately 4° C. Resulting plasma samples (˜150 μL) were stored at −80° C. until analysis.
Following sacrifice, tumors were immediately dissected on ice, flash frozen in liquid N2, and stored at −80° C. until analysis.
To 55 μL of plasma samples, 200 μL of methanol containing 150-250 ng/mL internal standard(s) was added. Samples were vortex mixed for approximately 1.5 minutes at ambient temperature and then centrifuged at 4400 rpm for 10 mm at approximately 4° C. The resulting supernatants (175 μL) were transferred to a 96-well plate and dried under nitrogen at 40° C. Dried samples were reconstituted with 100 μL 50/50 (v/v) water/methanol, vortex mixed and 10 μL were injected into LC-MS/MS.
Tumor samples were weighed and homogenized in 5 volume of ice-cold phosphate buffered saline on ice using a hand-held homogenizer. To 55 μL of tumor homogenate samples, 200 μL of methanol containing 150-250 ng/mL internal standard(s) was added. Samples were vortex mixed for approximately 1.5 minutes at ambient temperature and then centrifuged at 4400 rpm for 10 min at approximately 4° C. The resulting supernatants (175 μL) were transferred to a 96-well plate and dried under nitrogen at 40° C. Dried samples were reconstituted with 100 μL 50/50 (v/v) water/methanol, vortex mixed and 10 μL were injected into LC-MS/MS.
Plasma and tumor samples were analyzed by LC-MS/MS using an Agilent 1100 HPLC (Agilent Technologies, Santa Clara, Calif.) interfaced to an API 4000 tandem mass spectrometer (Applied Biosystems, Foster City, Calif.). […] The flow rate was 0.5 mL/min. […] Quantitation for each analyte was done by extrapolation from a standard curve ranging from 2.50 to 50000 nM with 1/x^2 weighting.
Blood samples (˜300 μL) were collected by cardiac puncture and immediately centrifuged at 6000 rpm for 8 minutes at approximately 4° C. Resulting plasma samples (˜150 μL) were transferred to Eppendorf tubes containing approximately 5-10 mg of NaF, vortex mixed, and stored at −80° C. until analysis.
Following sacrifice tumors were immediately dissected on ice, flash frozen in liquid N2, and stored at −80° C. until analysis.
To 60 μL of plasma samples, 25 μL of 75/25 (v/v) water/acetonitrile containing 100 ng/mL internal standard(s) and 200 μL of acetonitrile were added. Samples were vortex mixed for approximately 2 minutes at ambient temperature and then centrifuged at 4400 rpm for 10 min at approximately 4° C. The resulting supernatants (300 μL) were transferred to a 96-well plate and dried under nitrogen at 40° C. Dried samples were reconstituted with 500 μL 60/40 (v/v) water/acetonitrile, vortex mixed and 10 μL were injected into LC-MS/MS.
Tumor samples were weighed and homogenized in 3 volume of ice-cold phosphate buffered saline on ice using a hand-held homogenizer. To 60 μL of tumor homogenate samples, 25 μL of 75/25 (v/v) water/acetonitrile containing 100 ng/mL internal standard(s) and 200 μL of acetonitrile were added. […] The resulting supernatants (200 μL) were transferred to a 96-well plate and dried under nitrogen at 40° C. Dried samples were reconstituted with 600 μL 60/40 (v/v) water/acetonitrile, vortex mixed and 10 μL were injected into LC-MS/MS.
Plasma and tumor samples were analyzed by LC-MS/MS using an Agilent 1100 HPLC (Agilent Technologies, Santa Clara, Calif.) interfaced to an API 4000 tandem mass spectrometer (Applied Biosystems, Foster City, Calif.). The separation of analytes were performed on a Symmetry Shield Sum C18 (2.1×100 mm; 100 Å) column (Waters, Milford, Mass.) with a run time of 5.0 mm per sample using the mobile phase consisted of 0.1% formic acid (A) and acetonitrile containing 0.1% formic acid (B). […] Quantitation for each analyte was done by extrapolation from a standard curve ranging from 1.00 to 25000 ng/mL with 1/x^2 weighting.

Row | Compound | % Remaining (1 h) [1] | other results
1 | CC(C)c1cc(-c2nnc(O)n2-c2ccc(CC3CCN(CC(=O)Nc4cccc5c4CN(C4CCC(=O)NC4=O)C5=O)CC3)cc2)c(O)cc1O (centres unmarked) [SDC-TRAP-0116, 2-(4-(4-(3-(2,4-dihydroxy-5-isopropylphenyl)-5-hydroxy-4H-1,2,4-triazol-4-yl)benzyl)piperidin-1-yl)-N-(2-(2,6-dioxopiperidin-3-yl)-1-oxoisoindolin-4-yl) acetamide] | 91.1% | Tumor Conc. ([2]; 1 h): 13.7 nmol/g of tissue; Tumor Conc. ([2]; 6 h): 6.09 nmol/g of tissue; Tumor Conc. ([2]; 24 h): 2.78 nmol/g of tissue; Tumor Conc. ([2]; 48 h): 1.46 nmol/g of tissue; Tumor Conc. ([2]; […]): 17.7 nmol/g of tissue
2 | CC(C)c1cc(-c2nnc(O)n2-c2ccc(CN3CCN(C(=O)c4ccc(COC(=O)Nc5cccc6c5CN(C5CCC(=O)NC5=O)C6=O)cc4)CC3)c(F)c2)c(O)cc1O (centres unmarked) [SDC-TRAP-0157, 4-(4-(4-(3-(2,4-dihydroxy-5-isopropylphenyl)-5-hydroxy-4H-1,2,4-triazol-4-yl)-2-fluorobenzyl)piperazine-1-carbonyl)benzyl (2-(2,6-dioxopiperidin-3-yl)-1-oxoisoindolin-4-yl)carbamate] | 81.4% | –
3 | CC(C)c1cc(-c2nnc(O)n2-c2ccc(N3CCN(C(=O)c4ccc(COC(=O)Nc5cccc6c5CN(C5CCC(=O)NC5=O)C6=O)cc4)CC3)cc2)c(O)cc1O (centres unmarked) [SDC-TRAP-0156, 4-(4-(4-(3-(2,4-Dihydroxy-5-isopropylphenyl)-5-hydroxy-4H-1,2,4-triazol-4-yl)phenyl)piperazine-1-carbonyl)benzyl (2-(2,6-dioxopiperidin-3-yl)-1-oxoisoindolin-4-yl)carbamate] | 90.3% | –
4 | CCNC(=O)c1nnc(-c2cc(C(C)C)c(O)cc2O)n1-c1ccc(CN2CCC(C(=O)N3CCC(OC(=O)Nc4cccc5c4CN(C4CCC(=O)NC4=O)C5=O)CC3)CC2)cc1 (centres unmarked) [SDC-TRAP-0123, 1-(1-(4-(3-(2,4-Dihydroxy-5-isopropylphenyl)-5-(ethylcarbamoyl)-4H-1,2,4-triazol-4-yl)benzyl)piperidine-4-carbonyl)piperidin-4-yl (2-(2,6-dioxopiperidin-3-yl)-1-oxoisoindolin-4-yl)carbamate] | 95.6% | –
5 | CCNC(=O)c1nnc(-c2cc(C(C)C)c(O)cc2O)n1-c1ccc(N(C)C2CCN(C(=O)CCC(=O)O[C@H](C(=O)O[C@@H]3C[C@]4(O)[C@H](OC(=O)c5ccccc5)[C@H]5C6(OC(C)=O)COC6C[C@@H](O)[C@]5(C)C(=O)[C@@H](O)C(=C3C)C4(C)C)[C@H](NC(=O)OC(C)(C)C)c3ccccc3)CC2)nc1 (some centres unmarked) [SDC-TRAP-0423] | – | concentration at 6 h ([3]; female, SCID, mouse, in vivo, of analyte at 6 h, read-out: Plasma Conc.): 2210 nM; Tumor Conc. ([3]; of analyte at 6 h): 0.730 nmol/g of tissue; Plasma Conc. ([3]; of analyte at 48 h): BQL; Tumor Conc. ([3]; of analyte at 48 h): 0.0538 nmol/g of tissue; Plasma Conc. ([3]; of analyte at 72 h): BQL; Tumor Conc. ([3]; of analyte at 72 h): 0.0186 nmol/g of tissue
6 | CCNC(=O)c1nnc(-c2cc(C(C)C)c(O)cc2O)n1-c1ccc(Oc2ccc(C(=O)NC(Cc3ccccc3)C(=O)Nc3cc(-c4cnoc4-c4cc(OC)c(OC)c(OC)c4)ccc3OC)cc2)cc1 (centres unmarked) [SDC-TRAP-0158] | 92.7% | –
7 | COc1ccc(-c2cnoc2-c2cc(OC)c(OC)c(OC)c2)cc1OC(=O)N1CCN(c2ccc(-n3c(O)nnc3-c3cc(C(C)C)c(O)cc3O)cc2)CC1 [SDC-TRAP-0099, 2-methoxy-5-(5-(3,4,5-trimethoxyphenyl)isoxazol-4-yl)phenyl-4-(4-(3-(2,4-dihydroxy-5-isopropylphenyl)-5-hydroxy-4H-1,2,4-triazol-4-yl)phenyl) piperazine-1-carboxylate] | 95.2% | –
8 | COc1cc(O)c(-c2nnc(C(=O)NC(C)C)n2-c2ccc(CN3CCC(C(=O)Nc4cccc5c4CN(C4CCC(=O)NC4=O)C5=O)CC3)cc2)cc1C(C)C (centres unmarked) [SDC-TRAP-0115, N-(2-(2,6-dioxopiperidin-3-yl)-1-oxoisoindolin-4-yl)-1-(4-(3-(2-hydroxy-5-isopropyl-4-methoxyphenyl)-5-(isopropylcarbamoyl)-4H-1,2,4-triazol-4-yl)benzyl)piperidine-4-carboxamide] | 85.9% | –
9 | CCc1c2c(nc3ccc(OS(=O)(=O)c4cccc(C(=O)N5CCN(Cc6ccc(-n7c(O)nnc7-c7cc(C(C)C)c(O)cc7O)cc6)CC5)c4)cc13)-c1cc3c(c(=O)n1C2)COC(=O)C3(O)CC (centres unmarked) [SDC-TRAP-0389, 4,11-diethyl-4-hydroxy-3,14-dioxo-3,4,12,14-tetrahydro-1H-pyrano[3′,4′:6,7]indolizino[1,2-b]quinolin-9-yl 3-(4-(4-(3-(2,4-dihydroxy-5-isopropylphenyl)-5-hydroxy-4H-1,2,4-triazol-4-yl)benzyl)piperazine-1-carbonyl)benzenesulfonate] | 77.7% | –
10 | CCNC(=O)c1nnc(-c2cc(C(C)C)c(O)cc2O)n1-c1ccc(CN2CCC(C(=O)N3CCC(COC(=O)Nc4cccc5c4CN(C4CCC(=O)NC4=O)C5=O)CC3)CC2)cc1 (centres unmarked) [SDC-TRAP-0124, (1-(1-(4-(3-(2,4-Dihydroxy-5-isopropylphenyl)-5-(ethylcarbamoyl)-4H-1,2,4-triazol-4-yl)benzyl)piperidine-4-carbonyl)piperidin-4-yl)methyl (2-(2,6-dioxopiperidin-3-yl)-1-oxoisoindolin-4-yl)carbamate] | 112% | –
11 | CC(C)c1cc(-c2nnc(O)n2-c2ccc(CC(=O)N(C)CCOC(=O)Nc3cccc4c3CN(C3CCC(=O)NC3=O)C4=O)cc2)c(O)cc1O (centres unmarked) [SDC-TRAP-0127, 2-(2-(4-(3-(2,4-dihydroxy-5-isopropylphenyl)-5-hydroxy-4H-1,2,4-triazol-4-yl)phenyl)-N-methylacetamido)ethyl(2-(2,6-dioxopiperidin-3-yl)-1-oxoisoindolin-4-yl)carbamate] | 87.3% | –
12 | CC(C)c1cc(-c2nnc(O)n2-c2ccc3c(ccn3CCCC3CCN(C(=O)c4ncn5c(=O)n(C)nnc45)CC3)c2)c(O)cc1O [SDC-TRAP-0345, 8-(4-(3-(5-(3-(2,4-dihydroxy-5-isopropylphenyl)-5-hydroxy-4H-1,2,4-triazol-4-yl)-1H-indol-1-yl)propyl)piperidine-1-carbonyl)-3-methylimidazo[5,1-d][1,2,3,5]tetrazin-4(3H)-one] | 63.8% | –
13 | CO[C@H]1/C=C\C=C(/C)C(=O)NC2=CC(=O)C(NCCCCCCNC(=O)c3ncn4c(=O)n(C)nnc34)=C(C[C@@H](C)C[C@H](OC)[C@@H](O)[C@@H](C)/C=C(\C)[C@@H]1OC(N)=O)C2=O [SDC-TRAP-0267, (4E,6Z,8S,9S,10E,12S,13S,14S,16R)-13-hydroxy-8,14-dimethoxy-4,10,12,16-tetramethyl-19-((6-(3-methyl-4-oxo-3,4-dihydroimidazo[5,1-d][1,2,3,5]tetrazine-8-carboxamidohexyl)amino)-3,20,22-trioxo-2-azabicyclo[16.3.1]docosa-1(21),4,6,10,18-pentaen-9-yl carbamate] | 63.2% | –
14 | CCNC(=O)c1nnc(-c2cc(C(C)C)c(O)cc2O)n1-c1ccc(Oc2ccc(C(=O)N[C@@H](CC(C)C)C(=O)Nc3cccc4c3CN(C3CCC(=O)NC3=O)C4=O)cc2)cc1 (stereo partly drawn) [SDC-TRAP-0191, 5-(2,4-dihydroxy-5-isopropylphenyl)-4-(4-(4-(((2S)-1-((2-(2,6-dioxopiperidin-3-yl)-1-oxoisoindolin-4-yl)amino)-4-methyl-1-oxopentan-2-yl)carbamoyl)phenoxy)phenyl)-N-ethyl-4H-1,2,4-triazole-3-carboxamide] | 77.4% | –
15 | CC(C)c1cc(-c2nnc(O)n2-c2ccc(CN3CCN(c4cnc(C(=O)Nc5cccc6c5CN(C5CCC(=O)NC5=O)C6=O)cn4)CC3)c(F)c2)c(O)cc1O (centres unmarked) [SDC-TRAP-0170, 5-(4-(4-(3-(2,4-dihydroxy-5-isopropylphenyl)-5-hydroxy-4H-1,2,4-triazol-4-yl)-2-fluorobenzyl)piperazin-1-yl)-N-(2-(2,6-dioxopiperidin-3-yl)-1-oxoisoindolin-4-yl)pyrazine-2-carboxamide] | 94.1% | –
16 | CCc1c2c(nc3ccc(OS(=O)(=O)c4ccc(C(=O)N5CCC(CCn6ccc7cc(-n8c(O)nnc8-c8cc(C(C)C)c(O)cc8O)ccc76)CC5)cc4)cc13)-c1cc3c(c(=O)n1C2)COC(=O)C3(O)CC (centres unmarked) [SDC-TRAP-0390, 4,11-diethyl-4-hydroxy-3,14-dioxo-3,4,12,14-tetrahydro-1H-pyrano[3′,4′:6,7]indolizino[1,2-b]quinolin-9-yl 4-(4-(2-(5-(3-(2,4-dihydroxy-5-isopropylphenyl)-5-hydroxy-4H-1,2,4-triazol-4-yl)-1H-indol-1-yl)ethyl)piperidine-1-carbonyl)benzenesulfonate] | 92.5% | –
